Consider 7 molecules from ChEMBL document CHEMBL2331526, “Synthesis and characterization of novel quick-release propofol prodrug via lactonization” (Bioorg Med Chem Lett, 2013).

Active and inactive are the calls of the source. The rule behind the calls is not given here.

Data set [1] in a line: Solubility of the compound in water. It is filed as physicochemical. As to conditions: buffer.
The test system of data set [2] is Rattus norvegicus. Nature of the data set: Anesthetic effect in Sprague-Dawley rat assessed as disappearance of the righting reflex at 200 mg/kg, iv. The class given is functional, organism-based. The arrangement: dose 200 mg/kg.
Data set [3] deals with Rattus norvegicus. Nature of the data set: Toxicity in Sprague-Dawley rat assessed as duration of systemic convulsions at 40 mg/kg, iv. The class given is organism-based. The arrangement: dose 40 mg/kg, route intravenous. The note with it: in vivo.
Data set [4] concerns Rattus norvegicus. Description: Toxicity in Sprague-Dawley rat assessed as duration of systemic convulsions at 34 mg/kg, iv. The class given is organism-based. More on the design: dose 34 mg/kg, route intravenous. As to conditions: in vivo.
The subject of data set [5] is Rattus norvegicus. Nature of the data set: Anesthetic effect in Sprague-Dawley rat assessed as disappearance of the righting reflex at 34 mg/kg, iv. It is filed as functional, organism-based. The arrangement: dose 34 mg/kg.
Data set [6] can be described thus: Toxicity in iv dosed Sprague-Dawley rat. The note with it: in vivo. It is filed as organism-based.
The test system of data set [7] is Rattus norvegicus. Nature of the data set: Anesthetic effect in Sprague-Dawley rat assessed as duration time of disappearance of righting reflex to recovery of righting reflex at 2 times ED50, iv. The class given is functional.
The test system of data set [8] is Rattus norvegicus. Nature of the data set: Anesthetic effect in Sprague-Dawley rat assessed as onset time of disappearance of the righting reflex at 2 times ED50, iv. The class given is functional.
Data set [9] has as its system Rattus norvegicus. Nature of the data set: Anesthetic effect in iv dosed Sprague-Dawley rat assessed as disappearance of the righting reflex. The class given is functional.
A short description of data set [10]: Therapeutic index, ratio of LD50 for Sprague-Dawley rat to ED50 for Sprague-Dawley rat. It is filed as organism-based. As to conditions: in vivo, read-out: TI.
For a further data set, the system named is Plasma. Description: Prodrug activation in preheated rat plasma assessed as propofol release at 5 umol/ml measured up to 4 hrs by HPLC analysis. It is filed as cell-free. The note with it: 5000 µM.
Data set [11] is described as follows: Drug degradation in aqueous ethanol at 5 umol/ml measured up to 4 hrs by HPLC analysis. It is filed as physicochemical. As to conditions: buffer, 5000 µM.
Data set [12] in a line: Drug degradation in 30% emulsion at 5 umol/ml measured up to 4 hrs by HPLC analysis. It is filed as physicochemical. The note with it: 5000 µM.

As for `CCCC(=O)Oc1c(C(C)C)cccc1C(C)C`, the solubility entry in data set [1] is reported as “Insoluble”. The result with Rattus norvegicus [2] was inactive.
Turning to `CC(C)c1cccc(C(C)C)c1OCCCCO`, the Time in the data set with Rattus norvegicus [3] is listed as 3.8 min. Also, the Activity result with Rattus norvegicus [4] is reported as “Toxic”. The result in the data set on Rattus norvegicus [5] was inactive. For the same molecule, in [1], the solubility result is on record as “Insoluble”.
For orientation: LD50 means the dose expected to kill half of the subjects tested. A low value points to greater toxicity. The ED50 is the dose at which the effect has come halfway, by size or by number of responders. On to `CC(C)c1cccc(C(C)C)c1OCOP(=O)([O-])[O-].[Na+].[Na+]` [FOSPROPOFOL DISODIUM], for which the median lethal dose (LD50) in [6] came out at 163 mg/kg. Also, the Time in the data set with Rattus norvegicus [7] was determined as 31.04 min; with Rattus norvegicus [8], 2.17 min. In addition, the ED50 with Rattus norvegicus [9] worked out at 34.8 mg/kg. In data set [10], the selectivity ratio stood at 4.69.
In the case of `CC(C)c1cccc(C(C)C)c1OC(=O)CCCOP(=O)([O-])[O-].[Na+].[Na+]`, in data set [6], the median lethal dose (LD50) was found to be 288 mg/kg. In addition, the Time in the data set on Rattus norvegicus [7] was 27.49 min; in the data set on Rattus norvegicus [8], 2.11 min. The ED50 in the data set on Rattus norvegicus [9] was determined as 44.5 mg/kg. The selectivity ratio in [10] worked out at 6.48. Moreover, the solubility entry in data set [1] is recorded as “soluble”.
In data set [6], `CC(C)c1cccc(C(C)C)c1O` [PROPOFOL] registered an LD50 of 27.1 mg/kg. The figures for the Time with Rattus norvegicus [7] and in the data set with Rattus norvegicus [8] were 8.41 min and 0 min, respectively. Also, the ED50 in the data set on Rattus norvegicus [9] was determined as 6.57 mg/kg. For the same molecule, the selectivity ratio in data set [10] is 4.12.
In the case of `CC(C)c1cccc(C(C)C)c1OC(=O)CCCO`, the 50% lethal dose (LD50) in [6] worked out at 81.5 mg/kg. The Time in the data set with Rattus norvegicus [7] stood at 24.36 min; in the data set on Rattus norvegicus [8], 0.06 min. The Drug metabolism result with Plasma is given as “Active”. Besides, the Stability entry in [11] and in data set [12] was “Stable” in each case. In addition, the median effective dose (ED50) in the data set with Rattus norvegicus [9] came to 17.5 mg/kg. Also, in [10], the selectivity ratio came to 4.67.
`CC(C)c1cccc(C(C)C)c1OC(=O)CCCOC(=O)CN.O=C(O)C(F)(F)F` displayed an LD50 in data set [6] of 42.7 mg/kg. Further, the Time in the data set with Rattus norvegicus [7] came to 12.74 min; in the data set on Rattus norvegicus [8], 0.26 min. Besides, the ED50 with Rattus norvegicus [9] was found to be 14.4 mg/kg. Also, the selectivity ratio in [10] worked out at 2.96. For the same molecule, in [1], the solubility entry was “soluble”.
